Assay results as given in patent US9181303B2, “Treatment of bacterial infections with cyclic antimicrobial peptides” (N[…], priority 2005, dated 2015).
Several values for one entry are separate records, joined by “and”; a condition that tells them apart may be missing. Equal values may be shown once.

Columns and labels:
[1] = test system: T. rubrum; assay: Broth dilution antifungal susceptibility testing (CLSI M38-P), T. rubrum; format: cell-based, Trichophyton rubrum; conditions: for MIC versus T. rubrum: T. rubrum cultures
Procedure: (§1) Broth Dilution Antifungal Susceptibility Testing
(§2) The sensitivity of relevant fungal strains to the cyclized peptides was determined using Clinical Laboratory Standard Institute (CLSI; formerly NCCLS) Approved Standards. Fungal susceptibility was tested using “Reference Method for Broth Dilution Antifungal Susceptibility Testing of Filamentous Fungi; Approved Standard M38-P”, and yeast susceptibility was tested using “Reference Method for Broth Dilution Antifungal Susceptibility Testing of Yeasts; Approved Standard—Second Edition M27-A”.
T. rubrum susceptibility to peptides 1-8 was tested.

[2] = test system: T. interdigitale; assay: Broth dilution antifungal susceptibility testing, T. interdigitale; format: cell-based, Trichophyton interdigitale; conditions: for Activity towards T. interdigitale: in words
Procedure: as §1, §2
T. interdigitale susceptibility to peptides 2-8 was tested. Peptides 2, 4 and 6 were active towards T. interdigitale.

[3] = test system: C. neoformans; assay: Broth dilution antifungal susceptibility testing of yeasts (M27-A), C. neoformans; format: cell-based, Cryptococcus neoformans
Procedure: as §1, §2
C. neoformans susceptibility to peptides 4 and 6-8 was tested using “Reference Method for Broth Dilution Antifungal Susceptibility Testing of Yeasts; Approved Standard—Second Edition M27-A”.

[4] = test system: E. coli; assay: Broth dilution antibacterial susceptibility testing (CLSI M7-A7), E. coli; format: cell-based; conditions: for MIC versus E. coli: growth over 16 hours at 37° C.
Procedure: (§3) Broth Dilution Antibacterial Susceptibility Testing
(§4) The sensitivity of relevant bacterial strains to the cyclized peptides was determined using Clinical Laboratory Standard Institute (CLSI; formerly NCCLS) Approved Standards. Bacterial susceptibility was tested using “Methods for Dilution Antimicrobial Susceptibility Tests for Bacteria That Grow […]; Approved Standard—Seventh Edition M7-A7”
(§5) Cultures of E. coli and Staphylococcus aureus were exposed to Peptide 1 and the MIC after growth over the following 16 hours at 37° C. was 1 mM for both organisms (Table 2).

[5] = test system: S. aureus; assay: Broth dilution antibacterial susceptibility testing (CLSI M7-A7), S. aureus; format: cell-based, Staphylococcus aureus
Procedure: as §3, §4, §5

[6] = test system: T. mentagrophytes; assay: Broth dilution antifungal susceptibility testing, T. mentagrophytes; format: cell-based, Trichophyton mentagrophytes
Procedure: as §1, §2

[7] = test system: M. furfur; assay: Broth dilution antifungal susceptibility testing, M. furfur; format: cell-based, Malassezia furfur; conditions: M. furfur DSM6170
Procedure: as §1, §2

[8] = test system: S. brevicaulis; assay: Broth dilution antifungal susceptibility testing, S. brevicaulis; format: cell-based, Scopulariopsis brevicaulis
Procedure: as §1, §2

[9] = test system: A. niger; assay: Broth dilution antifungal susceptibility testing, A. niger; format: cell-based; conditions: A. niger NCPF2022
Procedure: as §1, §2

[10] = test system: A. terreus; assay: Broth dilution antifungal susceptibility testing, A. terreus; format: cell-based; conditions: A. terreus NCPF2729
Procedure: as §1, §2

[11] = test system: Fusarium oxysporum; assay: Broth dilution antifungal susceptibility testing, Fusarium oxysporum; format: cell-based; conditions: Fusarium oxysporum NCPF2722
Procedure: as §1, §2

[12] = test system: Fusarium spp; assay: Broth dilution antifungal susceptibility testing, Fusarium spp; format: cell-based
Procedure: as §1, §2

[13] = test system: C. albicans; assay: Broth dilution antifungal susceptibility testing of yeasts, C. albicans; format: cell-based
Procedure: as §1, §2

[14] = test system: C. krusei; assay: Broth dilution antifungal susceptibility testing of yeasts, C. krusei; format: cell-based
Procedure: as §1, §2

[15] = test system: C. parapsilosis; assay: Broth dilution antifungal susceptibility testing of yeasts, C. parapsilosis; format: cell-based
Procedure: as §1, §2

[16] = test system: Ps. aeruginosa; assay: Broth dilution antibacterial susceptibility testing, Ps. aeruginosa; format: cell-based
Procedure: as §3, §4

[17] = test system: B. cepacia; assay: Broth dilution antibacterial susceptibility testing, B. cepacia; format: cell-based, Burkholderia cepacia; conditions: B. cepacia ATCC25609
Procedure: as §3, §4

[18] = test system: P. acnes; assay: Broth dilution antibacterial susceptibility testing, P. acnes; format: cell-based; conditions: P. acnes DSMZ1897
Procedure: as §3, §4

[19] = test system: S. epidermidis; assay: Broth dilution antibacterial susceptibility testing, S. epidermidis; format: cell-based, Staphylococcus epidermidis; conditions: S. epidermidis ATCC12228
Procedure: as §3, §4

[20] = test system: C. difficile; assay: Broth dilution antibacterial susceptibility testing, C. difficile; format: cell-based, Clostridium difficile; conditions: C. difficile NCTC11209
Procedure: as §3, §4

Cyclic-DK-DK-DK-DK-DK-DK-DK-G [Peptide 8]
MIC versus T. rubrum [1]: > 4000 µM
MIC versus T. interdigitale [2]: >4000 µM
MIC versus C. neoformans [3]: 500 µM

Cyclic-DO-DO-DO-DO-DO-DO-DO-G [Peptide 7]
MIC versus T. rubrum [1]: >4000 µM
MIC versus T. interdigitale [2]: >4000 µM
MIC versus C. neoformans [3]: 2000 µM

Cyclic-DR-DR-DR-DR-DR-DR-DR-G [Peptide 6]
MIC versus T. rubrum [1]: 1000 µM
MIC versus T. interdigitale [2]: 250 µM
Activity towards T. interdigitale [2]: active
MIC versus C. neoformans [3]: 500 µM

Cyclic-K-K-K-K-K-K-K [Peptide 1]
MIC versus T. rubrum [1]: 100 µM
MIC versus E. coli [4]: 1000 µM
MIC versus S. aureus ([5]; growth over 16 hours at 37° C.): 1000 µM

Cyclic-K-K-K-K-K-K-K-G [Peptide 3]
MIC versus T. rubrum [1]: 4000 µM
MIC versus T. interdigitale [2]: >4000 µM

Cyclic-O-O-O-O-O-O-O-G [Peptide 5]
MIC versus T. rubrum [1]: 4000 µM
MIC versus T. interdigitale [2]: >4000 µM

Cyclic-R-R-R-R-R-R-R [Peptide 2]
MIC ([1]; T. rubrum 7 Clinical Isolates): 500 to 1000 µM
MIC ([1]; T. rubrum NCPF118): 250 µM
MIC versus T. rubrum [1]: 250 µM and 200 µM
MIC versus T. interdigitale [2]: <125 µM
MIC ([2]; T. interdigitale NCPF335): <125 µM
Activity towards T. interdigitale [2]: active
MIC ([4]; E. coli NCTC12900): 100 µM
MIC ([4]; E. coli, No strain designation): 100 µM
MIC versus E. coli [4]: 100 µM
MIC ([5]; S. aureus 16 Clinical Isolates): >3800 µM
MIC ([5]; S. aureus ANS46, MRSA): 950 µM
MIC ([5]; S. aureus ATCC12598): 950 µM
MIC ([5]; S. aureus ATCC25923): >100 µM
MIC ([5]; S. aureus Col, MRSA): 950 µM
MIC ([5]; S. aureus MW2, MRSA): 950 µM
MIC ([5]; S. aureus N315, MRSA): 950 µM
MIC ([5]; S. aureus NCTC6571, MSSA): >1900 µM
MIC ([5]; S. aureus NCTC8325): >1900 µM
MIC ([5]; S. aureus NCTC10442, MRSA): 250 µM
MIC ([5]; S. aureus NCTC10788): >1900 µM
MIC ([5]; S. aureus, No strain designation): 250 µM
MIC ([6]; T. mentagrophytes DM2006 978): 500 µM
MIC ([6]; T. mentagrophytes DM2006 1023): 500 µM
MIC [7]: 0.031 mM
MIC ([8]; S. brevicaulis DM2006 1025): 500 µM
MIC ([8]; S. brevicaulis NCPF2177): 500 µM
MIC [9]: 500 µM
MIC [10]: >2000 µM
MIC [11]: >2000 µM
MIC ([12]; Fusarium spp DM2006 294): >2000 µM
MIC ([12]; Fusarium spp DM2006 495): >2000 µM
MIC ([12]; Fusarium spp DM2006 1026): >2000 µM
MIC ([13]; C. albicans AM2003-020): >2000 µM
MIC ([13]; C. albicans ATCC24433): >2000 µM
MIC ([13]; C. albicans ATCC90028): >2000 µM
MIC ([13]; C. albicans IHEM3742): >2000 µM
MIC ([13]; C. albicans NCTC3179): >2000 µM
MIC ([13]; C. albicans s20122.073): >2000 µM
MIC ([14]; C. krusei ATCC6258): 125 µM
MIC ([14]; C. krusei NCPT3953): 128 to 256 µM
MIC ([15]; C. parapsilosis ATCC22019): 250 µM
MIC ([15]; C. parapsilosis ATCC90018): 1000 µM
MIC ([16]; Ps. aeruginosa ATCC27853 (first entry, r42)): >1900 µM
MIC ([16]; Ps. aeruginosa ATCC27853 (second entry, r44)): >2000 µM
MIC ([16]; Ps. aeruginosa DSM50071): >2000 µM
MIC [17]: >1900 µM
MIC [18]: 125 µM
MIC [19]: 25 µM
MIC [20]: >2000 µM

Cyclic-R-R-R-R-R-R-R-G [Peptide 4]
MIC versus T. rubrum [1]: 2000 µM
MIC versus T. interdigitale [2]: 500 µM
Activity towards T. interdigitale [2]: active
MIC versus C. neoformans [3]: 1000 µM
